# Literature values as cited in publication PMC2229313 (The Journal of General Physiology, 1996).
# Tested on: IFM/QQQ mutant Na channel
# Conditions: cytoplasmic application; ref Eaholtz et al., 1994
substance,measurement,value
KIQMK,effect on kinetics of IFM/QQQ mutant Na currents,fails to affect the kinetics of the inactivation-impaired Na channel
